One data set deals with rhinovirus B14. The experiment in a line: Antiviral activity against Human rhinovirus B14 infected in human HeLa Rh cells assessed as protection against virus induced cytopathic effect after 3 days in presence of 10% inactivated FBS by MTT assay. The class given is functional, organism-based. To be noted: Rhinovirus B, 72 h. On the technique in general: Cytopathic effects are the visible damage that an infection or toxin causes in cultured cells.

Data set [1] in a line: Cytotoxicity in un-infected human HeLa Rh cells assessed as reduction in cell viability incubated for 3 days by MTT assay. The class given is cell-based. A general note: Tetrazolium dyes change colour on reduction, which living cells bring about.
Data set [2] can be described thus: Selectivity index, ratio of CC50 for un-infected human HeLa Rh cells to EC50 for Human rhinovirus B14 infected in human HeLa Rh cells. The class given is toxicity, cell-based. To be noted: read-out: Ratio CC50/EC50.

What is called EC50 is the concentration giving half of the maximal effect. A word on the CC50: it is the concentration at which the toxic effect on the cells reaches its halfway point.

As for `COc1cc(C[C@H](O)c2ccc(C(F)(F)F)cc2)c([N+](=O)[O-])cc1OC`, the EC50 in the data set with rhinovirus B14 was determined as 0.46 µM. Moreover, the CC50 at 72 h in data set [1] worked out at 41.8 µM. Moreover, in data set [2], the selectivity ratio turned out to be 90.8.
In the same order, the values of `COc1cc(CC(O)c2ccc(-c3ccco3)cc2)c([N+](=O)[O-])cc1OC` (stereo not drawn) are 0.61 µM, 32 µM and 52.5.
Taken in the same sequence, the figures for `COc1cc(CC(O)c2ccc(C#N)cc2)c([N+](=O)[O-])cc1OC` (stereo not drawn) were 2.3 µM, 178 µM and 77.3.
On to `COc1cc(C[C@@H](O)c2ccc(-c3cn[nH]c3)cc2)c([N+](=O)[O-])cc1OC`, for which the EC50 in the data set on rhinovirus B14 came out at 35.6 µM. For the same compound, the CC50 at 72 h in data set [1] was more than 271 µM. Further, in data set [2], the selectivity ratio is more than 7.74.
Regarding `COc1cc(CC(O)c2ccc(-c3cnn(C)c3)cc2)c([N+](=O)[O-])cc1OC` (stereo not drawn), the EC50 in the data set on rhinovirus B14 was more than 270 µM. The CC50 at 72 h in data set [1] came out at 17.4 µM.
Consider `COc1cc(C[C@H](O)c2ccncc2)c([N+](=O)[O-])cc1OC`, for which the EC50 in the data set on rhinovirus B14 is 1.16 µM. Moreover, the CC50 at 72 h in data set [1] is more than 200 µM. For the same compound, the selectivity ratio in data set [2] is more than 172.
In the same order, the values of `COc1cc(C[C@H](O)c2ccc(-n3cncn3)cc2)c([N+](=O)[O-])cc1OC` are 0.34 µM, more than 271 µM and more than 797.
Taken in the same sequence, the figures for `CCOC(=O)N1CCN(c2ccc(C(O)Cc3cc(OC)c(OC)cc3[N+](=O)[O-])cc2)CC1` (stereo not drawn) were 18.1 µM, 33.8 µM and 1.9.
For the compound `Cc1cc(CCCOc2c(C)cc(-c3noc(C(F)(F)F)n3)cc2C)on1` [PLECONARIL], in data set [1], the CC50 at 72 h is more than 131 µM. Besides, in data set [2], the selectivity ratio was more than 437.
Consider `COc1cc(CC(O)c2ccc(N3CCCCC3)cc2)c([N+](=O)[O-])cc1OC` (stereo not drawn), for which the EC50 in the data set on rhinovirus B14 was found to be 1.88 µM. The CC50 at 72 h in data set [1] is 53.9 µM. Besides, in data set [2], the selectivity ratio amounted to 28.7.
For `COc1cc(CC(O)c2ccc(-c3ccc(C(F)(F)F)nc3)cc2)c([N+](=O)[O-])cc1OC` (stereo not drawn), in the data set with rhinovirus B14, the EC50 stood at 8.96 µM. Besides, the CC50 at 72 h in data set [1] came out at 152 µM. Moreover, the selectivity ratio in data set [2] was determined as 16.9.
In the same order, the values of `COc1cc(C[C@H](O)c2cccnc2)c([N+](=O)[O-])cc1OC` are 0.59 µM, more than 200 µM and more than 339.
Take `COc1cc(C[C@H](O)c2ccc(-n3cccn3)cc2)c([N+](=O)[O-])cc1OC`: the EC50 in the data set on rhinovirus B14 worked out at 0.35 µM. The CC50 at 72 h in data set [1] was more than 271 µM. The selectivity ratio in data set [2] is more than 774.
In the same order, the values of `COc1cc(CC(O)c2ccc(N3CCC(C)CC3)cc2)c([N+](=O)[O-])cc1OC` (stereo not drawn) are 1.91 µM, more than 250 µM and more than 131.
Consider `COc1cc(C[C@@H](O)c2cccnc2)c([N+](=O)[O-])cc1OC`, for which the EC50 in the data set with rhinovirus B14 was more than 200 µM. Further, in data set [1], the CC50 at 72 h was more than 200 µM.
On to `COc1cc(CC(O)c2ccc(C(F)(F)F)cc2)c([N+](=O)[O-])cc1OC` (stereo not drawn), for which the EC50 with rhinovirus B14 was 2 µM. Further, the CC50 at 72 h in data set [1] turned out to be 49.7 µM.
For `COc1cc(CC(O)c2ccc(-n3cccn3)cc2)c([N+](=O)[O-])cc1OC` (stereo not drawn), in the data set with rhinovirus B14, the EC50 stood at 0.58 µM. Besides, in data set [1], the CC50 at 72 h is more than 271 µM. Also, the selectivity ratio in data set [2] was more than 467.
For `COc1cc(C[C@@H](O)c2ccc(-n3cncn3)cc2)c([N+](=O)[O-])cc1OC`, the EC50 with rhinovirus B14 was more than 50 µM. In addition, in data set [1], the CC50 at 72 h was more than 271 µM.
As to `COc1cc(CC(O)c2ccc(-n3cncn3)cc2)c([N+](=O)[O-])cc1OC` (stereo not drawn), the EC50 in the data set on rhinovirus B14 was 0.92 µM. Also, the CC50 at 72 h in data set [1] was more than 271 µM. The selectivity ratio in data set [2] was more than 295.
For `COc1cc(C[C@@H](O)c2ccc(-n3cccn3)cc2)c([N+](=O)[O-])cc1OC`, the EC50 with rhinovirus B14 was 42 µM. Further, in data set [1], the CC50 at 72 h was more than 271 µM. The selectivity ratio in data set [2] was more than 6.5.
Taken in the same sequence, the figures for `COc1cc(CC(O)c2ccncc2)c([N+](=O)[O-])cc1OC` (stereo not drawn) were 3.4 µM, more than 263 µM and more than 77.
Taken in the same sequence, the figures for `COc1cc(C[C@H](O)c2ccc(C#N)cc2)c([N+](=O)[O-])cc1OC` were 0.26 µM, 178 µM and 685.
Taken in the same sequence, the figures for `COc1cc(CC(O)c2ccc(-c3cncnc3)cc2)c([N+](=O)[O-])cc1OC` (stereo not drawn) were 2.22 µM, more than 271 µM and more than 122.
Consider `COc1cc(C[C@H](O)c2ccc(-c3cn[nH]c3)cc2)c([N+](=O)[O-])cc1OC`, for which the concentration for a half-maximal effect (EC50) in the data set with rhinovirus B14 was 0.25 µM. In addition, the CC50 at 72 h in data set [1] was more than 271 µM. Also, in data set [2], the selectivity ratio was more than 1080.
For the compound `COc1cc(CC(O)c2cccnc2)c([N+](=O)[O-])cc1OC` (stereo not drawn), in the data set with rhinovirus B14, the EC50 stood at 2 µM. In data set [1], the CC50 at 72 h is more than 263 µM. Further, the selectivity ratio in data set [2] is more than 131.
In the case of `COc1cc(C[C@@H](O)c2ccc(C#N)cc2)c([N+](=O)[O-])cc1OC`, the EC50 in the data set on rhinovirus B14 turned out to be 10.6 µM. Besides, in data set [1], the CC50 at 72 h amounted to 178 µM. Moreover, the selectivity ratio in data set [2] came to 16.8.
In the same order, the values of `COc1cc(CC(O)c2ccc(N3CCOCC3)cc2)c([N+](=O)[O-])cc1OC` (stereo not drawn) are 11.7 µM, 193 µM and 16.5.
Turning to `COc1cc(C[C@@H](O)c2ccncc2)c([N+](=O)[O-])cc1OC`, in the data set with rhinovirus B14, the EC50 was more than 200 µM. Also, the CC50 at 72 h in data set [1] was determined as 55.2 µM.
On to `COc1cc(CC(O)c2ccc(-c3ccsc3)cc2)c([N+](=O)[O-])cc1OC` (stereo not drawn), for which the EC50 in the data set with rhinovirus B14 amounted to 0.54 µM. Besides, the CC50 at 72 h in data set [1] worked out at 11.5 µM. Further, the selectivity ratio in data set [2] was 21.3.
With `COc1cc(CC(O)c2ccc(N3CCNCC3)cc2)c([N+](=O)[O-])cc1OC` (stereo not drawn), in the data set with rhinovirus B14, the EC50 came out at 238 µM. Besides, the CC50 at 72 h in data set [1] is more than 258 µM.
In the same order, the values of `COc1cc(CC(O)c2ccc(-c3cc(C(F)(F)F)nn3C)cc2)c([N+](=O)[O-])cc1OC` (stereo not drawn) are more than 222 µM and 12.1 µM.
For `COc1cc(CC(O)c2ccc(-c3cn[nH]c3)cc2)c([N+](=O)[O-])cc1OC` (stereo not drawn), the EC50 in the data set with rhinovirus B14 was found to be 0.76 µM. For the same compound, the CC50 at 72 h in data set [1] is more than 271 µM. Also, in data set [2], the selectivity ratio is more than 356.
As for `COc1cc(CC(O)c2ccc(N3CCCC3)cc2)c([N+](=O)[O-])cc1OC` (stereo not drawn), in the data set with rhinovirus B14, the EC50 came to 1.94 µM. Further, the CC50 at 72 h in data set [1] was more than 269 µM. Moreover, in data set [2], the selectivity ratio is more than 139.
Consider `COc1cc(C[C@@H](O)c2ccc(C(F)(F)F)cc2)c([N+](=O)[O-])cc1OC`, for which the EC50 in the data set on rhinovirus B14 was more than 200 µM. For the same compound, in data set [1], the CC50 at 72 h was determined as 13.9 µM.
